Results published in patent US7517657B2, “Peptides for detecting anti-double stranded DNA antibody and uses thereof” (Albert Einstein College of Medicine of Yeshiva University, priority 1995, dated 2009).
Entries after “also recorded” stand apart in the source; their conditions may differ. Square brackets hold non-standard residues; d marks the D form. Ends that are not written are not given here.

Legend:
R4A binding to dsDNA = assay: Peptide inhibition of R4A binding to dsDNA by ELISA; design: species or system mouse; conditions: fluid phase inhibitor, FIG. 3, FIG. 4
Experimental: FIG. 3 depicts peptide inhibition of R4A (1 μg/ml) binding to calf thymus double stranded DNA by Enzyme Linked ImmunoSorbent Assay.
FIG. 4 sets forth a graph representing DWEYS (L and D peptides) (SEQ ID NO:2) inhibition of R4A binding to dsDNA. IMMULON® II plates were coated overnight with 100 μg/ml salmon sperm dsDNA. R4A at a final concentration of 5 μg/ml was incubated at varying concentrations of L or D DWEYS (SEQ ID NO:2) and transferred to the plate precoated with dsDNA. After a 2-hr incubation at 37° C., the plates were washed, and alkaline phosphotase-linked goat anti-mouse IgG2b antibody was added for 1 hour at 37° C. OD after addition of substrate was monitored at 405 nm.

[1] = tested on: production of anti-dsDNA antibodies; assay: Immunization of nonautoimmune BALB/c mice with peptide in complete Freund's adjuvant; format: in vivo; conditions: unpublished work
Source text: It is also noteworthy that both the R4A and 52b3 peptides have aromatic residues, tryptophan and tyrosine. […] This apparent difference in specificity is consistent with the finding that they bind distinct peptides. It is also noteworthy that both the R4A and 52b3 consensus motifs have aromatic residues, tryptophan and tyrosine. It is tempting to speculate that the negatively charged aspartate and glutamate residues are analogous to phosphate groups, the aromatic tryptophan residues are analogous to the pentose sugar backbone, and the tyrosine and serine residues are analogous to the hydroxyl groups attached to the pentose moiety in the DNA molecule, thus explaining why these peptides are mimics of DNA. One potential utility of identifying peptide mimotopes for dsDNA is to try to determine if the actual eliciting antigen for production of these antibodies or target antigen for deposition in kidneys might be a protein molecule. […] It is interesting to speculate whether the murine homolog of chicken collagen XIV also has a splice variant containing the same or highly homologous peptide sequence that would be recognized by the R4A antibody.

[2] = tested on: R4A deposition in glomeruli; assay: Assay of anti-dsDNA antibody (R4A) glomerular deposition in SCID mice; format: in vivo; conditions: 75 μg R4A and 150 μg peptide i.p., IgG immunostaining, FIG. 5
Experimental: FIG. 5 sets forth kidney sections exemplifying peptide inhibition of R4A deposition in glomeruli. R4A (75 μg) and peptide (150 μg) were injected i.p. into SCID mice. Mice were killed 16 hours later, and the kidneys immunostained for IgG deposition. […] FIG. 5B sets forth a representative section from a mouse injected with R4A, and the R4A- specific D peptide DWEYS (SEQ ID NO:2).
Glomerular deposition of the nephritogenic R4A antibody was examined by injecting purified antibody into SCID mice. R4A was obtained from cell culture supernatants or from ascites of mice injected with the cell line. Antibody was purified on a protein G column (Gamma Bind, Pharmacia). SCID mice were obtained from the breeding colony maintained at the Albert Einstein College of Medicine. Six- to eight-week old female mice were used in the experiments. Anti-dsDNA antibodies and IgG2b levels were undetectable in these mice before injection. Individual mice were simultaneously injected i.p. with 75 μg of purified R4A and 150 μg of the appropriate peptide. The mice were killed 16 hours after the injection of antibody.
One kidney from each animal was fixed in 10% formalin and embedded in paraffin. […]

52b3 binding to dsDNA = assay: Peptide inhibition of 52b3 binding to dsDNA by ELISA; design: species or system mouse; conditions: fluid phase peptide, FIG. 3
Experimental: To determine whether peptide and dsDNA bound within the same antigen binding site of each antibody, inhibition assays were performed with specific peptides. […] These were used in fluid phase to inhibit the binding of antibody to dsDNA. Two peptides, Asp-Trp-Glu-Tyr-Ser-Val-Trp-Leu-Ser-Asn (SEQ ID NO:1) and Asp-Trp-Glu-Tyr-Ser (SEQ ID NO:2), were chosen as the R4A specific epitope; the 52b3 specific peptide was Arg-His-Glu-Asp-Gly-Asp-Trp-Pro-Arg-Val (SEQ ID NO:7).

[3] = tested on: R4A anti-dsDNA monoclonal antibody; assay: ELISA binding of monoclonal antibody R4A to phage clones; design: species or system mouse; conditions: R4A selected phage, Table 2
Experimental: FIG. 1 is comprised of FIGS. 1A, 1B and 1C, and depicts the binding by Enzyme Linked ImmunoSorbent Assay of monoclonal antibodies R4A (FIG. 1A), 95 (FIG. 1B) and 52b3 (FIG. 1C) to phage clones. In each figure, the shaded columns are R4A-selected phage and unshaded columns are 52b3-selected phage.
Binding of antibodies to phage was determined by Enzyme-Linked ImmunoSorbent Assay (ELISA). Microtiter plates (Becton Dickinson, Lincoln Park, N.J.) were coated with 50 μl of antibody (1 μg/ml unless otherwise specified) in TBS (Tris/10 mM HCl pH 7.5, 150 mM NaCl) overnight at 4° C. Plates were washed 3 times with TBS/0.05% TWEEN® 20. Approximately 2.5×10^10 purified phage in 50 μl TBS were added to each well, incubated for 2 hours at 37° C., washed, and then were blocked with 150 μl of TBS/2% BSA for 1 hour at 37° C. Plates were incubated with 50 μl of a 1:4000 dilution in TBS of biotinylated sheep antibody to M13 phage (5′->3′, Inc., Boulder, Colo.) for 1 hour at 37° C. Plates were washed again and incubated with a 1:4000 dilution of […] streptavidin (Southern Biotech. Assoc. Inc., Birmingham, Ala.) and developed with Sigma-104 substrate tablets (Sigma Chemical Co.). Optical density was read at 405 nm.

[4] = molecular target: phage clone φ3-3, no insert (UniProt P03661); assay: phage ELISA, antibody coated, no-insert control phage added, anti-M13 detection
UniProt P03661, sequence (P03661 19-424 limits assumed): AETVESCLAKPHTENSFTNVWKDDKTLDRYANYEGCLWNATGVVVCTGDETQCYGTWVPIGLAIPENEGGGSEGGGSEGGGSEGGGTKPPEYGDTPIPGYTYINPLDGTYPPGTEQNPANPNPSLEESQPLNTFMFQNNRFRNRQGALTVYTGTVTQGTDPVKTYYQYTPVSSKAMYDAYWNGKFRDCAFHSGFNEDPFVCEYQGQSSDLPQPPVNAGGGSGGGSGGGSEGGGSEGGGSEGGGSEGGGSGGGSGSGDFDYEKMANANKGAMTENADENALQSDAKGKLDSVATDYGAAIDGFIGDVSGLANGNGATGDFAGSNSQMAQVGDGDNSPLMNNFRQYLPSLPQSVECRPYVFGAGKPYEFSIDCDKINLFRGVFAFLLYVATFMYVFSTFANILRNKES

| Substance | Inhibition of R4A binding to dsDNA (R4A binding to dsDNA) | Binding O.D. 405 nm [3] | further results |
| --- | --- | --- | --- |
| Asp-Trp-Glu-Tyr-Ser (DWEYS; printed: Asp-Trp-Glu-Tyr-Ser) | inhibited dsDNA binding by the appropriate antibody only |  | Production of anti-dsDNA antibodies after immunization [1]: leads to production of anti-dsDNA antibodies |
| DWEYS [D peptide DWEYS] (Ac-[dD][dW][dE][dY][dS]-NH2; SMILES CC(=O)N[C@H](CC(=O)O)C(=O)N[C@H](Cc1c[nH]c2ccccc12)C(=O)N[C@H](CCC(=O)O)C(=O)N[C@H](Cc1ccc(O)cc1)C(=O)N[C@H](CO)C(N)=O) [R4A-specific peptide DWEYS made from D amino acids] | inhibited the binding of R4A to dsDNA |  | Inhibition of R4A deposition in glomeruli / kidney [2]: markedly inhibited the deposition of R4A in the kidney; also recorded: only the D peptide conferred renal protection in vivo |
| DWEYS [L peptide DWEYS, R4A-specific L peptide DWEYS] | showed greater maximal inhibition; also recorded: inhibited the binding of R4A to dsDNA; also recorded: inhibited dsDNA better than the D peptide in vitro |  | Inhibition of R4A deposition in glomeruli / kidney [2]: More anti-dsDNA antibody is present in glomeruli; also recorded: did not |
| DWEYSVWLSN [R4A specific peptide] | inhibited dsDNA binding by the appropriate antibody only |  |  |
| RHEDGDWPRV [52b3 specific peptide] |  |  | Inhibition of 52b3 binding to dsDNA (52b3 binding to dsDNA): inhibited dsDNA binding by the appropriate antibody only |
| V P V C D W E L N C (VPVCDWELNC; displayed on phage; peptide (1)..(10) randomly-selected sequence obtained by biopanning a decapeptide library with R4A) [φ7-26] |  | 0.4 |  |
| W C E A D Y G R C P (WCEADYGRCP; displayed on phage; peptide (1)..(10) randomly-selected sequence obtained by biopanning a decapeptide library with R4A) [φ7-21] |  | 1.3 |  |
| Y S D W D Y S E G L (YSDWDYSEGL; displayed on phage; peptide (1)..(10) randomly-selected sequence obtained by biopanning a decapeptide library with R4A) [φ1-10] |  | 1.1 |  |
| monoclonal antibody R4A (mouse anti-dsDNA antibody) |  |  | Binding O.D. 405 nm [4]: 0.1 O.D. 405 nm |
